IC50 and Partition ratio r data for 4 compounds are collected here from patent publication US20110201564A1, “SUBSTITUTED 7-SULFANYLMETHYL, 7-SULFINYLMETHYL AND 7-SULFONYLMETHYL INDOLES AND USE THEREOF” (BAYER SCHERING PHARMA AKTIENGESELLSCHAFT, priority 2008, published 2011).

Series [1] addresses T1, androgen receptor (AR) (Homo sapiens, UniProt P10275).
T1 construct: of the androgen receptor (AR, amino acids 667-919); expressed in transfected cells; host or cells: CHO K1
T1 sequence (P10275 668-920): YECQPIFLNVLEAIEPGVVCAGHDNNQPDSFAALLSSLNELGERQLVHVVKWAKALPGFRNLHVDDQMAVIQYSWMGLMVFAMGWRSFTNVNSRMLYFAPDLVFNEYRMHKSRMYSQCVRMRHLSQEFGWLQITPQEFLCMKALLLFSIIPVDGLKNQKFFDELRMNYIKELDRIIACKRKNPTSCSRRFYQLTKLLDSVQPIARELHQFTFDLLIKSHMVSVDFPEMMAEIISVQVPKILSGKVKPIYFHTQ
The experiment in a line: Cellular in vitro assay, GAL4-AR chimera luciferase reporter in CHO K1 cells (selectivity). It is filed as cell-based. Particulars: antagonism vs dihydrotestosterone; CHO K1 GAL4-AR LBD luciferase reporter. The essentials: (§1)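 CHO K1 cells stably expressing GAL4 DNA-binding domain fused to human MR, PR or AR ligand-binding domains plus GAL4-driven firefly luciferase; compounds added 10–30 min before agonist (aldosterone, progesterone or dihydrotestosterone), luciferase read after 5–6 h; IC50 from sigmoidal concentration–response curves.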
A general note: Reporter assays use an easily measured gene product as a stand-in for the process of interest.

The target in series [2] is T2, progesterone receptor (PR) (Homo sapiens, UniProt P06401).
T2 construct: of the progesterone receptor (PR, amino acids 680-933); expressed in transfected cells; host or cells: CHO K1
T2 sequence (P06401 680-933): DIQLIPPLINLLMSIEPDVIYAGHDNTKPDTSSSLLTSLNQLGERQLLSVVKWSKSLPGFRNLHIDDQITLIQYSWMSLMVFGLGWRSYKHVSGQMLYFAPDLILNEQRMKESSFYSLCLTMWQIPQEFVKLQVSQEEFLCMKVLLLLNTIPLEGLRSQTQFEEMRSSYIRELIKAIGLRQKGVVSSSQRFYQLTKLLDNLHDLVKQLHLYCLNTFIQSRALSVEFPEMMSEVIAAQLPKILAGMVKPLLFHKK
The experiment in a line: Cellular in vitro assay, GAL4-PR chimera luciferase reporter in CHO K1 cells (selectivity). It is filed as cell-based. Particulars: antagonism vs progesterone; CHO K1 GAL4-PR LBD luciferase reporter. The method in brief:
as §1

In series [3] the target is T3, human mineralocorticoid receptor (MR) (Homo sapiens, UniProt P08235).
T3 construct: expressed in transfected cells; host or cells: CHO K1
T3 sequence (P08235 734-984 limits assumed): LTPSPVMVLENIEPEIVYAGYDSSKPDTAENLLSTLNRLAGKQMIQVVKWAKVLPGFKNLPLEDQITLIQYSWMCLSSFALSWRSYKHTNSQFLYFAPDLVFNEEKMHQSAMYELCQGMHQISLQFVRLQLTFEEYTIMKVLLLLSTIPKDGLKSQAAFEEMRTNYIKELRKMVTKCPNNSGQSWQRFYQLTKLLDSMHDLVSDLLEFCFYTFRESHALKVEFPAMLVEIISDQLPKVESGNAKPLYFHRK
The experiment in a line: Cellular in vitro assay, GAL4-MR chimera luciferase reporter in CHO K1 cells (inhibitory MR activity). It is filed as cell-based. Particulars: antagonism vs aldosterone; CHO K1 GAL4-MR LBD luciferase reporter. The essentials: as §1

For series [4], the target named is T4, CYP3A4 (Homo sapiens, UniProt P08684).
T4 construct: using human liver microsomes (pool from various individuals); from tissue; host or cells: human liver microsomes (pool from various individuals)
The experiment in a line: Assay to assess irreversible CYP3A4 inhibition (mechanism-based inhibition) in human liver microsomes. Particulars: CYP3A4 activity as 6β-hydroxytestosterone formation, 2-20 μM. Format: in vitro ADME. From the text:
8. Assay to Assess Irreversible CYP3A4 Inhibition
Cytochrom P450 enzyme inhibition, especially irreversible enzyme inhibition, also referred to as mechanism-based inhibition (MBI), is an unwanted metabolic property of a substance which may, on concurrent administration of other medicaments, lead to considerable drug interactions. Criteria for the presence of an irreversible inhibition are a time-, concentration- and cofactor- (nicotinamide adenine dinucleotide phosphate, NADPH) dependent inhibition. To this end, the compounds of the invention are incubated in vitro with human liver microsomes, the influence on the CYP3A4 activity and the metabolic degradation of the novel active ingredient is determined, and the prototypical parameters kinact, Ki and the partition ratio r are ascertained therefrom.
The compounds of the invention are incubated with concentrations of 2-20 μM. To this end, stock solutions of the active ingredients with a concentration of 0.2-2 mM are prepared in acetonitrile and then pipetted with a 1:100 dilution into the incubation mixture. The liver microsomes are incubated in 50 mM potassium phosphate buffer (pH 7.4) with and without NADPH-generating system consisting of 1 mM NADP^+, 5 mM glucose 6-phosphate and 1 unit of glucose 6-phosphate dehydrogenase, at 37° C. After defined preincubation times of 0-50 min, aliquots are removed from these mixtures, diluted 1:25 in a new incubation, and incubated in the presence of testosterone and new NADPH-generating system again for 20 min. These incubation mixtures are stopped with acetonitrile (final concentration about 30% v/v), and the protein is removed by centrifugation at about 15 000×g. The samples stopped in this way are either analyzed directly or stored at −20° C. until analyzed.
The analysis takes place by high performance liquid chromatography with mass spectrometry detection (LC-MS). The formation of 6β-hydroxytestosterone as measure of CYP3A4 activity, and the test substance still remaining is quantified. The parameters kinact, Ki and the partition ratio r are determined therefrom so as to assess the novel active ingredients in relation to MBI.

Series [5] addresses T4, CYP3A4. In words: CYP inhibition assay with human liver microsomes. It is filed as in vitro ADME. The text has this: Inhibitory properties of an active ingredient on the cytochromes P450 (CYP) of the human body may entail extensive clinical effects (drug interactions) because most of the prescribed medicaments are degraded (metabolized) by these enzymes. The ones involved in this are in particular the CYP isoenzymes of the 1A and 2C families, CYP2D6 and, with a proportion of almost 50%, CYP3A4. In order to preclude or minimize these possible drug interactions (Drug-Drug Interactions, DDI), the ability of substances to be able to inhibit CYP1A2, CYP2C8, CYP2C9, CYP2D6 and CYP3A4 in humans is investigated using human liver microsomes (pool from various individuals). This takes place by measuring CYP isoform-specific metabolites formed from standard substrates such as, for example, phenacetin, amodiaquin, diclofenac, dextromethorphan, midazolam and testosterone. The inhibitory effects are investigated at six different concentrations of the test compounds (1.5, 3.1, 6.3, 12.5, 25 and 50 μM as maximum concentration or 0.6, 1.3, 2.5, 5, 10 and 20 μM as maximum concentration), comparing with the extent of the CYP isoform-specific metabolite formation of the standard substrates in the absence of the test compounds, and calculating the corresponding IC50 values. CYP isoform-specific standard inhibitors such as, for example, fluvoxamine, quercetin, sulfaphenazole, fluoxetine and ketoconazole serve as control of the results obtained. In order to obtain indications of the possible mechanism-based inhibitors (MBI) on CYP3A4, the human liver microsomes are incubated in the presence of the inhibitor to be investigated for 30 minutes before the addition of midazolam or testosterone as standard substrates of CYP3A4. A reduction in the IC50 obtained by comparison with the mixture without preincubation serves as an indicator of a mechanism-based inhibition. Mibefradil serves as positive control.
The incubations of the standard substrates with human liver microsomes (23-233 μg/mL) in the presence of the test compound (as potential inhibitor) are carried out in 96-well plates in a workstation (Tecan, Genesis, Crailsheim, Germany) at 37° C. The incubation times are 15-20 minutes. The test compounds are preferably dissolved in acetonitrile (1.0 or 2.5 mM stock solution). The 96-well plates are produced by sequential addition of a stock solution of NADP+, EDTA, glucose 6-phosphate and glucose-6-phosphate dehydrogenase in phosphate buffer (pH 7.4), the test compound, and a solution of standard substrate and human liver microsomes in phosphate buffer (pH 7.4). The total volume is 200 μl. The corresponding control incubations with and without standard inhibitor also take place on the 96-well plate. The incubations are stopped after the respective incubation time by adding 100 μl of acetonitrile in which there is a suitable internal standard. Precipitated proteins are removed by centrifugation (3000 rpm, 10 minutes, 10° C.). The resulting supernatants of the respective plates are combined on one plate and analyzed by LC-MS/MS. The […] values are generated from the resulting measured data and used to assess the inhibitory potential of the test compound.
In general terms: Liver microsomes are a subcellular fraction often used to study metabolism.

Like-named read-outs stand apart in the source and are kept apart here.

T4 sequence (P08684 whole entry): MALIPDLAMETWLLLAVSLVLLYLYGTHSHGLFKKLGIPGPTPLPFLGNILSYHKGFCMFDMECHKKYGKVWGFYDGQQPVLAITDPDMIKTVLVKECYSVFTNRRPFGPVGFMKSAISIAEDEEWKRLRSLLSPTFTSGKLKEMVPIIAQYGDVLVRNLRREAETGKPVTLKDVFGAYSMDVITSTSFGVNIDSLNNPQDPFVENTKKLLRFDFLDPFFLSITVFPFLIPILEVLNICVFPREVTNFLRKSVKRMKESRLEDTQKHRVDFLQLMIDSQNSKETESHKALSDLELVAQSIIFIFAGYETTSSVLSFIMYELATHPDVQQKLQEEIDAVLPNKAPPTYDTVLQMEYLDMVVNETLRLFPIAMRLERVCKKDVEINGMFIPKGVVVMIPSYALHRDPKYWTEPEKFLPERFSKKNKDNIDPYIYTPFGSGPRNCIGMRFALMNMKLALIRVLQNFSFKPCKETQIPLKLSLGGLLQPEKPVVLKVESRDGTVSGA

Turning to `CS(=O)(=O)Cc1cccc2c(C(CCC#N)c3ccc(C(F)(F)F)cc3)c[nH]c12` (single isomer, unassigned) [Example 56-1, 4-{7-[(Methylsulfonyl)methyl]-1H-indol-3-yl}-4-[4-(trifluoromethyl)phenyl]butanonitrile], the values for the IC50 in series [1], in series [2] and in series [3] were 5.67 µM, 4.07 µM and 0.09 µM, respectively. For the same compound, the Partition ratio r in series [4] amounted to 100.

Turning to `CS(=O)(=O)Cc1cc(F)cc2c(C(c3ccc(F)cc3Cl)C3CC3C#N)c[nH]c12` (single isomer, unassigned) [Example 266-1, 2-[(2-Chloro-4-fluorophenyl){5-fluoro-7-[(methylsulfonyl)methyl]-1H-indol-3-yl}methyl]cyclopropanecarbonitrile], the IC50 in series [1] amounted to 1.29 µM; in series [2] it was 3 µM; in series [3], 0.007 µM. In series [4], the Partition ratio r is on record as >200.

Regarding `CS(=O)(=O)Cc1cc(F)cc2c(C(c3ccc(Cl)cc3)C3CC3C#N)c[nH]c12` (single isomer, unassigned) [Example 277-1-1, 2-[(4-Chlorophenyl){5-fluoro-7-[(methylsulfonyl)methyl]-1H-indol-3-yl}methyl]cyclopropane-carbonitrile], the IC50 in series [1] turned out to be 3.9 µM; in series [2], 10 µM; in series [3], 0.008 µM. For the same compound, the Partition ratio r in series [4] is >200.

Consider `CS(=O)(=O)Cc1cccc2c(C(c3ccc(F)cc3)c3ccc(Cl)cc3F)c[nH]c12` (single isomer, unassigned) [Example 118-1, 3-[(4-Chloro-2-fluorophenyl)(4-fluorophenyl)methyl]-7-[(methylsulfonyl)methyl]-1H-indole], for which the Partition ratio r in series [4] was 250. For the same compound, the IC50 in series [5] (30 min preincubation with test compound before substrate, read-out: CYP 3A4 Preincubation, 30 min.) is 11.2 µM; in series [5] (without preincubation, read-out: CYP 3A4 Coincubation) it was > 20 µM.
